Experiments:
BMNCs = experiment: Cell viability assay (CCK-8), normoxia or hypoxia; assay type: cell-based, mouse
Source text: (§1) Bone marrow mononuclear cells (BMNCs) were isolated from femurs and tibias of 8 to 12-week-old male C57BL/6 mice by a previously described protocol [Kroeger K, Collins M, Ugozzoli (2009) The preparation of primary hematopoietic cell cultures from murine bone marrow for electroporation. J. Vis. Exp. 23: pii:1026. doi:10.3791/1026] and were separated from dead cells and red blood cells (RBCs) by Histopaque ([…]) (Sigma-Aldrich Chemical, St. Louis, Mo., USA) density gradient centrifugation. Thereafter, the cells were cultured in Iscove's modified Dulbecco's media (IMDM) with 15% heat inactivated fetal bovine serum (FBS), 1% bovine serum albumin (BSA), 100 units/ml penicillin and 100 μg/ml streptomycin at 37° C. in 5% CO2 humidified air. The separated blood was cultured as described previously [Oswald J, et al. (2004). Mesenchymal stem cells can be differentiated into endothelial cells in vitro. Stem Cells, 22: 377-384.] to obtain bone marrow stromal cells in α-minimum essential medium (MEM) with 20% heat inactivated FBS, 100 units/ml penicillin and 100 μg/ml streptomycin at 37° C. in 5% CO2 humidified air.
The possible cytotoxicity of QGR was examined in BMNCs. The cells were plated with a density of 5×10^3 cells/well in 96 well plates in 200 μl of medium. The cells cultured for 24 hrs with variable concentrations of QGR in either normoxia or hypoxia conditions were evaluated using a cell counting-8 assay kit (CCK-8) according to the manufacturer's instructions (Dojindo Molecular Technologies, Rockville, Md., USA). Briefly, 20 μl of CCK-8 solution was added to each well. The plates were incubated for 2 hrs in an incubator at 37° C. The resulting color was assayed at 450 nm using an EL808 microplate absorbance reader (BIO-TEK, Winooski, Vt., USA).

[1] = system: bone marrow stromal cells; experiment: Real-time RT-PCR of hematopoietic cytokine mRNA; assay type: cell-based, mouse
Source text: as §1
To confirm whether QGR regulates the expression of hematopoietic cytokines in bone marrow stromal cells, real-time RT-PCR was performed. Bone marrow stromal cells (3×10^5 cells/plate) were incubated with either mouse rIL-3 (100 units/ml) plus rSCF (5 units/ml) plus rEpo (3 units/ml) or QGR (50, 100 or 200 μM/ml) in 60 mm-diameter cell culture plates. The cells were harvested after 4 hr of incubation and washed with PBS and total RNA were extracted using RNA extraction kit (Applied Biosystems, Carlsbad, Calif., USA). First strand synthesis of cDNA was carried out with 1 μg of total RNA using cDNA synthesis kit (Applied Biosystems, Foster City, Calif., USA). Real-time PCR using TaqMan probe PCR master mix kit (Applied Biosystems) was performed according to the manufacturer's instruction using a model 7500 Real-Time PCR System (Applied Biosystems). GAPDH mRNA was utilized as an internal standard to normalize target transcript expression. The relative ratios of SCF, GM-CSF, or Epo mRNA to GAPDH mRNA which can be used to quantify precisely the levels of each mRNA expression, were calculated with the standard curves.

[2] = system: bone marrow failure mouse induced by busulphan (BU); experiment: Colony-forming unit-fibroblast (CFU-F) measurement from MSPCs in BU bone marrow failure model; assay type: in vivo, Balb/c mice; details: decreased from day 10 in positive control group; p<0.05
Method: Bone marrow failure model induced by administering busulphan (BU) was designed according to the procedures previously described by Molyneux et al (Cell Biol Toxicol 27, 13-40, 2011) and the scheme is shown in FIG. 8. BU (Sigma chemicals, Poole, Dorset, UK) was dissolved in acetone to a final concentration of 18.8 mg/ml, diluted five-fold with distilled water, and was intraperitoneally administered three times for 5 days with the dose of 0.2 ml BU solution per mouse. Equal amount of five-fold diluted acetone solution without BU was administered to vehicle control group. QGR was dissolved in dimethylsulfoxide and diluted with distilled water to a final concentration of 1.25%. Mice were orally administered every two days with QGR (0.25 mg/mouse) for 63 days. […]
CFU-F, a progenitor cell colony differentiated from MSPCs is in the stage prior to being finally matured into mesenchymal cells such as osteoblast, vascular endothelial cells acting as hematopoietic stem cell niche. In order to investigate the effect of QGR on the formation and differentiation of mesenchymal stem cells, MSPCs were isolated and the number of CFU-F colonies of the respective groups was measured and compared to each other. […] All visible colonies were counted.

[3] = system: bone marrow failure mouse induced by busulphan (BU); experiment: Histopathological features of bone marrow and osteoid formation in BU bone marrow failure model; assay type: in vivo, Balb/c mice
Method: Bone marrow failure model induced by administering busulphan (BU) was designed according to the procedures previously described by Molyneux et al (Cell Biol Toxicol 27, 13-40, 2011) and the scheme is shown in FIG. 8. BU (Sigma chemicals, Poole, Dorset, UK) was dissolved in acetone to a final concentration of 18.8 mg/ml, diluted five-fold with distilled water, and was intraperitoneally administered three times for 5 days with the dose of 0.2 ml BU solution per mouse. Equal amount of five-fold diluted acetone solution without BU was administered to vehicle control group. QGR was dissolved in dimethylsulfoxide and diluted with distilled water to a final concentration of 1.25%. Mice were orally administered every two days with QGR (0.25 mg/mouse) for 63 days. Seven or eight mice were sacrificed on days of 1, 5, 10, 16, 25, 40, 49, and 63 after BU administration and were investigated to confirm the effect of QGR to recover bone marrow failure.
In order to confirm histological bone marrow damage induced by BU administration and to investigate whether QGR recovers the damaged bone marrow, histopathological features of H&E staining slide of the respective group's bone marrow were observed and compared to each other among the groups. In addition, the degree of sinusoid damage in bone marrow was graded as normal, hemorrhage or discontinuous, regressed vessel, assigned with numerical value and compared to each other among the groups. Moreover, in order to investigate the effect of QGR on the differentiation and maturation from mesenchymal stem cells to osteoblast, the formation of osteoid in humerus was comparatively analyzed. Goldner's trichrome staining was carried for osteoid and the stained area of the respective group was compared with each other after determining the stained area by using an image analyzer.

[4] = 100 and 200 μM, vs rIL-3+rSCF+rEpo

Which cell viability (BMNCs; 50 μM, 24 hrs) does the source give for CC1OC(Oc2c(-c3ccc(O)c(O)c3)oc3cc(O)cc(O)c3c2=O)C(OC(=O)c2cc(O)c(O)c(O)c2)C(O)C1O (stereo not drawn) [QGR, quercetin 3-O-β-(2″-galloyl)-rhamnopyranoside] here?
Its cell viability is “significantly increased cell viability”.

And the cytotoxicity (BMNCs; BMNCs, 24 hrs, various concentrations)?
Its cytotoxicity is “not cytotoxic”.

What about the “cell viability after hypoxic damage” value (BMNCs; QGR post-treatment 200 μM, hypoxic damage for 24 hrs) of the same molecule?
Its value is “increased cell viability”.

What about the “viable cells under hypoxic damage” value (BMNCs; QGR pretreatment, hypoxic damage 24 hrs, vs untreated group, dose-dependent) of the same molecule?
Its value is “increased the viable cells”.

And the “mRNA expression levels of SCF, GM-CSF and Epo” value ([1]; 50, 100 or 200 μM/ml, 4 hrs, dose-dependent)?
The value was “increased”.

What about the “Epo mRNA compared to the positive control” value [1, 4] of the same molecule?
The value was “significantly increased”.

What about the “GM-CSF mRNA compared to the positive control” value [1, 4] of the same molecule?
The value was “significantly increased”.

And the “SCF mRNA compared to the positive control” value ([1]; all concentrations, vs rIL-3+rSCF+rEpo)?
Its value is “significantly increased”.

And the “number of CFU-F” value [2]?
The value was “recovered significantly”.

And the “degree of osteoid formation” value ([3]; Goldner's trichrome staining, vs positive control group)?
Its value is “actively formed”.

And the “number of cells in bone marrow of humerus (cellularity)” value ([3]; H&E, vs positive control group)?
The value was “recovered”.

What about the “number of regressed sinusoid” value ([3]; day 10) of the same molecule?
The value was “significantly decreased”.

What about the “number of normal sinusoid” value ([3]; day 10, vs positive control group (BU)) of the same molecule?
Its value is “greater”.

What about the “number of normal sinusoids” value ([3]; day 63) of the same molecule?
The value was “increased”.

What about the “numbers of hemorrhagic sinusoids” value ([3]; day 63) of the same molecule?
Its value is “significantly decreased”.

What about the “numbers of regressed sinusoids” value ([3]; day 63) of the same molecule?
Its value is “significantly decreased”.

What about the “area of osteoid formation” value ([3]; from day 10 after QGR administration, vs positive control group) of the same molecule?
The value was “increased significantly”.

What about the “number of megakaryocytes surrounding sinusoid” value ([3]; from day 16 after QGR administration, vs positive control group) of the same molecule?
Its value is “increased”.

And the “sinusoidal endothelia in the bone marrow” value ([3]; vs severely damaged sinusoids in positive control group)?
The value was “recovered sinosoids”.

From patent US9289444B2, “Composition for promoting hematogenesis containing quercetin 3-O-β-(2″-galloyl)-rhamnopyranoside as active ingredient” (Chungbuk National University Industry Academic Cooperation …, priority 2011, dated 2016)
